{"source": "ChEMBL document CHEMBL3745709", "about": "“Synthesis of novel ethyl 1-ethyl-6-fluoro-7-(fatty amido)-1,4-dihydro-4-oxoquinoline-3-carboxylate derivatives and their biological evaluation” (Bioorg Med Chem Lett, 2016)", "key": {"Micrococcus luteus": {"test_system": "Micrococcus luteus", "experiment": "Antibacterial activity against Micrococcus luteus MTCC 2470 assessed as inhibition zone after 24 hrs at 30 degC by well diffusion method", "format": "functional", "details": "MTCC 2470, 24 h; call rule not given here"}, "Staphylococcus aureus [1]": {"test_system": "Staphylococcus aureus", "experiment": "Antibacterial activity against Staphylococcus aureus MLS-16 MTCC 2940 assessed as inhibition zone after 24 hrs at 30 degC by well diffusion method", "format": "functional", "details": "MLS-16 MTCC 2940, 24 h"}, "[2]": {"experiment": "Antioxidant activity assessed as DPPH free radical scavenging activity", "format": "physicochemical"}, "A549": {"test_system": "A549", "experiment": "Cytotoxicity against human A549 cells assessed as reduction in cell viability by MTT assay", "format": "functional, cell-based"}, "Pseudomonas aeruginosa": {"test_system": "Pseudomonas aeruginosa", "experiment": "Antibacterial activity against Pseudomonas aeruginosa MTCC 2453 assessed as inhibition zone after 24 hrs at 30 degC by well diffusion method", "format": "functional", "details": "MTCC 2453, 24 h"}, "Staphylococcus aureus [3]": {"test_system": "Staphylococcus aureus", "experiment": "Antibacterial activity against Staphylococcus aureus MTCC 96 […] after 24 hrs at 30 degC by well diffusion method", "format": "functional", "details": "MTCC 96, 24 h"}, "Bacillus subtilis": {"test_system": "Bacillus subtilis", "experiment": "Antibacterial activity against Bacillus subtilis MTCC 121 assessed as inhibition zone after 24 hrs at 30 degC by well diffusion method", "format": "functional", "details": "MTCC 121, 24 h"}, "Raoultella planticola": {"test_system": "Raoultella planticola", "experiment": "Antibacterial activity against Klebsiella planticola MTCC 530 assessed as inhibition zone after 24 hrs at 30 degC by well diffusion method", "format": "functional", "details": "MTCC 530, 24 h"}, "Escherichia coli": {"test_system": "Escherichia coli", "experiment": "Antibacterial activity against Escherichia coli MTCC 739 assessed as inhibition zone after 24 hrs at 30 degC by well diffusion method", "format": "functional", "details": "MTCC 739, 24 h"}, "MCF7": {"test_system": "MCF7", "experiment": "Cytotoxicity against human MCF7 cells assessed as reduction in cell viability by MTT assay", "format": "functional, cell-based"}, "[4]": {"experiment": "Cytotoxicity against human SKOV3 cells assessed as reduction in cell viability by MTT assay", "format": "functional, cell-based", "details": "SK-OV-3"}, "Candida albicans": {"test_system": "Candida albicans", "experiment": "Antifungal activity against Candida albicans MTCC 3017 […] after 24 hrs at 30 degC by well diffusion method", "format": "functional", "details": "MTCC 3017, 24 h"}, "[5]": {"experiment": "Cytotoxicity against human DU145 cells assessed as reduction in cell viability by MTT assay", "format": "functional, cell-based", "details": "DU-145"}}, "data": [{"molecule": "CCCCCCCCCCCCCCCC(=O)Nc1cc2c(cc1F)c(=O)c(C(=O)OCC)cn2CC", "values": [{"measurement": "MIC", "setting": "Micrococcus luteus", "value": "> 125", "unit": "µg/mL"}, {"measurement": "MIC", "setting": "Staphylococcus aureus [1]", "value": "> 125", "unit": "µg/mL"}, {"measurement": "EC50", "setting": "[2]", "value": "Not Active"}, {"measurement": "IC50", "setting": "A549", "value": 24.3, "unit": "µM"}, {"measurement": "MIC", "setting": "Pseudomonas aeruginosa", "value": "> 125", "unit": "µg/mL"}, {"measurement": "MIC", "setting": "Staphylococcus aureus [3]", "value": "> 125", "unit": "µg/mL"}, {"measurement": "MIC", "setting": "Bacillus subtilis", "value": "> 125", "unit": "µg/mL"}, {"measurement": "MIC", "setting": "Raoultella planticola", "value": "> 125", "unit": "µg/mL"}, {"measurement": "MIC", "setting": "Escherichia coli", "value": "> 125", "unit": "µg/mL"}, {"measurement": "IC50", "setting": "MCF7", "value": 18.6, "unit": "µM"}, {"measurement": "IC50", "setting": "[4]", "value": 17.8, "unit": "µM"}, {"measurement": "MIC", "setting": "Candida albicans", "value": "> 125", "unit": "µg/mL"}, {"measurement": "IC50", "setting": "[5]", "value": 25.2, "unit": "µM"}]}, {"molecule": "Cc1c(C)c2c(c(C)c1O)CC[C@@](C)(CCC[C@H](C)CCC[C@H](C)CCCC(C)C)O2", "note": "[ALPHA-TOCOPHEROL]", "values": [{"measurement": "EC50", "setting": "[2]", "value": 10.4, "unit": "µg/mL"}]}, {"molecule": "Cc1cc(C(C)(C)C)c(O)c(C(C)(C)C)c1", "note": "[BUTYLATED HYDROXYTOLUENE]", "values": [{"measurement": "EC50", "setting": "[2]", "value": 28.5, "unit": "µg/mL"}]}]}
